pIC50: −log10 of the molar value.

The values that follow come from US12275719B2, “Small molecule inhibitors of galectin-3” (BRISTOL-MYERS SQUIBB COMPANY, priority 2019, dated 2025).

The assay addresses His-tagged recombinant human Gal-3 (hGal-3) (Homo sapiens, UniProt P17931). Put plainly: Gal-3 HTRF assay (hGal-3 / B-ASF binding inhibition). How it is done:
ASSAY BUFFER Composition: 25 mM HEPES, 100 mM NaCl, 0.005% Tween 20, 0.05% BSA prepared in sterile water (all reagents from Sigma).
Positive Control: 100% DMSO (1 μL)+His-tagged hGal-3 (20 μL)+β-ASF (20 μL)+Anti-His Terbium Antibody (5 μL)+Strep d2 Antibody (5 μL).
Negative Control: 100% DMSO (1 μL)+His-tagged hGal-3 (20 μL)+Anti His Terbium Antibody (5 μL)+Strep d2 Aantibody (5 μL).
PROTOCOL: The Gal-3 assays were performed in 384 white Opti plates in three replicates at room temperature with gentle shaking at 250-300 rpm From the original stocks, […] working stock concentrations of His-tagged recombinant human Gal-3 (hGal-3) and that of B-ASF were prepared. From the working stock, 20 μL of hGal-3 (15 nM) and 20 μL B-ASF (15 nM) were added to the plates. In Negative Control, only hGal-3 was added. A concentration range of 50× working stocks were prepared for the compounds in 100% DMSO. Aliquots of 1 μL of the compounds were added to the wells and pre-incubated with 20 μL hGal-3 per well for 30 minutes Then 20 μL B-ASF were added and incubated for another 1 hour. To detect the signal, 5 μL (final conc. of 1.0 nM) terbium labelled Anti-His antibody was added and incubated for 30 min followed by adding 5 μL (final conc. of 20 nM) Streptavidin d2 and incubation for another 1 hour. The assay signal was detected using HTRF screen protocol (Excitation wavelength=340 nm, emission wavelength=615 nm/665 nm) on Envision 2104 Multilabel Reader. Data analysed using Toolset and Curve Master. Results are reported in the experimental section (IC50 in μM).
(TR-FRET usually uses a lanthanide donor and a delayed reading to cut background.)

The mark [1] stands for this setting: Examples 26 to 29 and 66 to 68, HTRF, 15 nM hGal-3, 15 nM B-ASF.
Setting [2] is: text of Examples 1 to 4, HTRF, 15 nM hGal-3, 15 nM B-ASF.

His-tagged recombinant human Gal-3 (hGal-3), sequence (P17931 whole entry): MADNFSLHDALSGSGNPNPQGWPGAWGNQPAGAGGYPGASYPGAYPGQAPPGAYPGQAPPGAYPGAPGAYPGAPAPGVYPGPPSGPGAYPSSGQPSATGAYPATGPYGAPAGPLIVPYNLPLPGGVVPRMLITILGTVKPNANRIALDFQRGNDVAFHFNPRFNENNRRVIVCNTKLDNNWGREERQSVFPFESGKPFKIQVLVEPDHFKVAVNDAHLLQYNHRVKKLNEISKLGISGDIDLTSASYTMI

Take `Cc1nc([C@@H]2O[C@H](CO)[C@H](O)[C@H](n3cc(-c4ccc(Cl)c(F)c4F)nn3)[C@H]2O)n(-c2cc(Cl)cnc2C(F)(F)F)n1` [Example 22]: the pIC50 (as a rule, −log10 of the IC50, conventionally taken in molar units) (table of Examples 5 to 25) was 7.26.

For `Cc1nc([C@@H]2O[C@H](CO)[C@H](O)[C@H](n3cc(-c4ccc(Br)c(F)c4F)nn3)[C@H]2O)n(-c2cc(Cl)ncc2C(F)(F)F)n1` [Example 9], for the setting “table of Examples 5 to 25”, the pIC50 is 7.92.

For the compound `OC[C@H]1O[C@@H](c2nncn2-c2cc(Cl)ccc2C(F)(F)F)[C@H](O)[C@@H](n2cc(-c3ccc(Cl)c(F)c3F)nn2)[C@H]1O` [Example 52], under “table of Examples 30 to 65”, the pIC50 was 8.01.

In the case of `CO[C@@H]1[C@@H](n2cc(-c3ccc(Cl)c(F)c3F)nn2)[C@@H](O)[C@@H](CO)O[C@H]1c1nc(C)nn1-c1ccc2ncsc2c1` [Example 21], where the note is “table of Examples 5 to 25”, the pIC50 was 8.00.

Turning to `COc1cc(-c2cn([C@H]3[C@@H](O)[C@@H](CO)O[C@@H](c4nc(C)nn4-c4cc(Cl)ccc4C(F)(F)F)[C@@H]3O)nn2)cc2ccccc12` [Example 18], where the note is “table of Examples 5 to 25”, the pIC50 is 5.88.

On to `OC[C@H]1O[C@@H](c2nncn2-c2cc(Cl)ccc2C(F)(F)F)[C@H](O)[C@@H](n2cc(-c3ccc(Br)c(F)c3F)nn2)[C@H]1O` [Example 26, (2S,3R,4R,5R,6R)-4-(4-(4-bromo-2,3-difluorophenyl)-1H-1,2,3-triazol-1-yl)-2-(4-(5-chloro-2-(trifluoromethyl)phenyl)-4H-1,2,4-triazol-3-yl)-6-(hydroxymethyl)tetrahydro-2H-pyran-3,5-diol], for which the pIC50 under setting [1] was 8.00.

In the case of `OC[C@H]1O[C@@H](c2nncn2-c2ccc3ncsc3c2)[C@H](OCC(F)F)[C@@H](n2cc(-c3ccc(Br)c(F)c3F)nn2)[C@H]1O` [Example 70], the pIC50 (table of Examples 69 to 75) was 7.96.

Take `OC[C@H]1O[C@@H](c2nncn2-c2cc(Cl)ccc2OC(F)(F)F)[C@H](O)[C@@H](n2cc(-c3c(F)c(F)c(Br)c(F)c3F)nn2)[C@H]1O` [Example 47]: the pIC50 (table of Examples 30 to 65) is 7.85.

In the case of `Cn1nc([C@@H]2O[C@H](CO)[C@H](O)[C@H](n3cc(-c4ccc(Br)c(F)c4F)nn3)[C@H]2O)n(-c2cc(Cl)ccc2C(F)(F)F)c1=S` [Example 66, 5-((2S,3R,4R,5R,6R)-4-(4-(4-bromo-2,3-difluorophenyl)-1H-1,2,3-triazol-1-yl)-3,5-dihydroxy-6-(hydroxymethyl)tetrahydro-2H-pyran-2-yl)-4-(5-chloro-2-(trifluoromethyl)phenyl)-2-methyl-2,4-dihydro-3H-1,2,4-triazole-3-thione], the pIC50 under setting [1] is 6.12.

Regarding `OC[C@H]1O[C@@H](c2nncn2-c2cc(Cl)ccc2C(F)(F)F)[C@H](O)[C@@H](n2cc(-c3cc(F)c(Cl)c(Cl)c3)nn2)[C@H]1O` [Example 34], under “table of Examples 30 to 65”, the pIC50 was 7.70.

Regarding `CO[C@@H]1[C@@H](n2cc(-c3cc(F)c(Br)c(F)c3)nn2)[C@@H](O)[C@@H](CO)O[C@H]1c1ncnn1-c1cc(Cl)ccc1C(F)(F)F` [Example 31], the pIC50 (table of Examples 30 to 65) was 7.62.

As for `OC[C@H]1O[C@@H](c2nncn2-c2cc(Cl)ccc2OC(F)(F)F)[C@H](OCC(F)F)[C@@H](n2cc(-c3ccc(Br)c(F)c3F)nn2)[C@H]1O` [Example 57], the pIC50 (table of Examples 30 to 65) was 7.68.

As for `OC[C@H]1O[C@@H](c2nncn2-c2cc(Cl)ccc2OC(F)(F)F)[C@H](OCC(F)F)[C@@H](n2cc(-c3ccc(Cl)c(F)c3F)nn2)[C@H]1O` [Example 53], the pIC50 (table of Examples 30 to 65) is 7.72.

For `OC[C@H]1O[C@@H](c2nncn2-c2cc(Cl)ccc2C(F)(F)F)[C@H](OCC(F)(F)C(F)F)[C@@H](n2cc(-c3ccc(Br)c(F)c3)nn2)[C@H]1O` [Example 64], the pIC50 (table of Examples 30 to 65) is 7.00.

With `OC[C@H]1O[C@@H](c2nncn2-c2cc(Cl)ccc2C(F)(F)F)[C@H](OCC(F)(F)F)[C@@H](n2cc(-c3ccc(Cl)c(F)c3F)nn2)[C@H]1O` [Example 60], where the note is “table of Examples 30 to 65”, the pIC50 was 7.85.

Consider `Cn1nc([C@@H]2O[C@H](CO)[C@H](O)[C@H](n3cc(-c4ccc(Br)c(F)c4F)nn3)[C@H]2O)n(-c2cc(Cl)ccc2C(F)(F)F)c1=S` [Example 67, 5-((2S,3R,4R,5R,6R)-4-(4-(4-bromo-2,3-difluorophenyl)-1H-1,2,3-triazol-1-yl)-3,5-dihydroxy-6-(hydroxymethyl)tetrahydro-2H-pyran-2-yl)-4-(5-chloro-2-(trifluoromethyl)phenyl)-2-methyl-2,4-dihydro-3H-1,2,4-triazole-3-thione], for which the pIC50 under setting [1] was 8.03.

For the compound `Cc1nc([C@@H]2O[C@H](CO)[C@H](O)[C@H](n3cc(-c4ccc(Br)c(F)c4F)nn3)[C@H]2O)n(-c2cc(Cl)ccc2OC(F)(F)F)n1` [Example 10], the pIC50 (table of Examples 5 to 25) was 7.96.

Turning to `Cc1nc([C@@H]2O[C@H](CO)[C@H](O)[C@H](n3cc(-c4ccc(Br)cc4F)nn3)[C@H]2O)n(-c2cc(Cl)ccc2C(F)(F)F)n1` [Example 12], for the setting “table of Examples 5 to 25”, the pIC50 is 7.25.

As to `OC[C@H]1O[C@@H](c2nncn2-c2ccc3ncsc3c2)[C@H](OCC(F)F)[C@@H](n2cc(-c3cc(F)c(Br)c(F)c3)nn2)[C@H]1O` [Example 68, (2R,3R,4S,5R,6S)-6-(4-(benzo[d]thiazol-6-yl)-4H-1,2,4-triazol-3-yl)-4-(4-(4-bromo-3,5-difluorophenyl)-1H-1,2,3-triazol-1-yl)-5-(2,2-difluoroethoxy)-2-(hydroxymethyl)tetrahydro-2H-pyran-3-ol], the pIC50 under setting [1] is 7.60.

In the case of `COc1cc(-c2cn([C@H]3[C@@H](O)[C@@H](CO)O[C@@H](c4nc(C)nn4-c4cc(Cl)ccc4C(F)(F)F)[C@@H]3O)nn2)cc(F)c1Cl` [Example 3, (2S,3R,4R,5R,6R)-2-(1-(5-Chloro-2-(trifluoromethyl)phenyl)-3-methyl-1H-1,2,4-triazol-5-yl)-4-(4-(4-chloro-3-fluoro-5-methoxyphenyl)-1H-1,2,3-triazol-1-yl)-6-(hydroxymethyl)tetrahydro-2H-pyran-3,5-diol], under setting [2], the pIC50 was 7.85.

`CNC(=O)CO[C@@H]1[C@@H](n2cc(-c3cc(F)c(Cl)c(F)c3)nn2)[C@@H](O)[C@@H](CO)O[C@H]1c1nc(C)nn1-c1cc(Cl)ccc1C(F)(F)F` [Example 4, 2-(((2S,3R,4S,5R,6R)-2-(1-(5-chloro-2-(trifluoromethyl)phenyl)-3-methyl-1H-1,2,4-triazol-5-yl)-4-(4-(4-chloro-3,5-difluorophenyl)-1H-1,2,3-triazol-1-yl)-5-hydroxy-6-(hydroxymethyl)tetrahydro-2H-pyran-3-yl)oxy)-N-methylacetamide]: the pIC50 under setting [2] was 7.64.
